Source: patent US20230329282A1, “Application of 1-Deoxynojirimycin in Feed for Improving Nutritional Value and Sensory Effect of Rabbit Meat Products” (priority 2023, published 2023)
Marks after values point to notes of the source that are not given here.

System: New Zealand white rabbits
Experiment: Meat quality of rabbit longissimus dorsi (pH, meat color, drip loss, shear force) after DNJ-supplemented diet
Format: in vivo
Conditions: 28 d; for Meat color Brightness L* / Meat color Redness a* / Meat color Yellowness b* / pH45min / pH24 h / pH24 h decreased: longissimus dorsi; for Drip loss: meat hung at 4° C. 24 h
Excerpt: The single-factor completely randomized test design is adopted. 36 45-day-old healthy New Zealand white rabbits (male) with the average weight of (1.05±0.04) kg are selected and randomly divided into 3 groups, and each group has 12 replicates with 1 rabbit per replicate. A control group is fed with a basal diet, an L-DNJ group is fed with the basal diet+0.14 g/kg DNJ, and an H-DNJ group is fed with the basal diet+0.28 g/kg DNJ. The diet is uniformly mixed to be prepared into cylindrical particles with the diameter of 6 mm and the length of 1 cm. The preliminary trial period is 14 d, and the trial period is 28 d.
Before the test, rabbit houses and cages are cleaned and disinfected, rabbits are immunized according to routine procedures, and the rabbit houses are naturally ventilated and illuminated. Each experimental rabbit is raised in a single cage and fed with a diet and water twice a day at fixed time (8:00 am and 17:00 pm), and is free to eat and drink.
The rabbits are deprived of food (but not water) on the night of the end of the experiment, and after weighing in the next morning, 8 rabbits with similar weight are selected from each group and slaughtered. The longissimus dorsi muscles of the rabbits are collected, the pH values of the front, middle and back parts of the longissimus dorsi muscle are measured with a pH meter (Bante221, Shanghai Bante Instrument Co., Ltd.) having the function of automatic temperature compensation and then measured again after standing at room temperature for 24 h, and the pH decreased values of the muscle within 24 h are calculated. The pH value is the average value of the three readings. The meat color (L*, α*, b*) is measured with a TC-PIIG automatic color difference meter (Beijing Aoyike Photoelectric Instrument Co., Ltd.) on the muscle surface. The detection light source is D65 according to CIE laboratory standards, and the measurement area is 8 mm in diameter. The average value is obtained by making three measurements at each detection point.
About 20 g of meat sample is weighed (demoted as M1), hung with a thin thread, and covered with a plastic bag with the mouth sealed, enough space is left inside to accommodate oozy water drops, and the meat sample is hung in a 4° C. refrigerator for 24 h. After being taken out, the meat sample is weighed (denoted as M2) after the surface moisture is absorbed with absorbent paper. 3 parallel samples are measured for each rabbit, and the results are averaged. Drip loss=(M1−M2)/M1×100%.
Another meat sample is trimmed into a 1 cm×1 cm×2.5 cm meat strip, the shear force is measured in the direction perpendicular to the muscle fibers by a TMS-PRO texture analyzer (FTC Corporation, USA) for three times, and the results are averaged.

[1] = H-DNJ: basal diet+0.28 g/kg DNJ
[2] = L-DNJ: basal diet+0.14 g/kg DNJ

OC[C@H]1NC[C@H](O)[C@@H](O)[C@@H]1O [DNJ, 1-deoxynojirimycin]
Shear force [1]: 33.51 N/cm^2
Meat color Brightness L* [1]: 55.34^b
Meat color Redness a* [1]: 1.71ª
Meat color Yellowness b* [1]: 8.35
pH45min [1]: 6.77
pH24 h [1]: 5.89
pH24 h decreased [1]: 0.87
Drip loss [1]: 3.17%
Shear force [2]: 32.86 N/cm^2
Meat color Brightness L* [2]: 55.82^ab
Meat color Redness a* [2]: 1.56ª
Meat color Yellowness b* [2]: 8.32
pH45min [2]: 6.62
pH24 h [2]: 5.87
pH24 h decreased [2]: 0.76
Drip loss [2]: 3.56%
